Literature values, collected in patent US8338613B2, “Process for the preparation of bidentate schiff base ruthenium catalysts containing a salicylaldimine-type ligand” (RIMTEC Corporation, priority 2009, dated 2012).

Details: in water (for Ag2CO3)

| Compound | pKb |
| --- | --- |
| O=C([O-])[O-].[Na+].[Na+] [Na2CO3] | about 3.69 |
| O=C([O-])[O-].[K+].[K+] [K2CO3] | about 3.69 |
| O=C([O-])[O-].[Li+].[Li+] [Li2CO3] | about 3.69 |
| O=C([O-])[O-].[Cu+2] [CuCO3] | about 3.69 |
